According to PubChem BioAssay AID1259408 (Genetic Toxicology Data Bank (GENE-TOX), 2018):
Active and inactive are the calls of the source. The rule behind the calls is not given here.

Test system: GENE-TOX genotoxicity assays, various organisms and cells
Assay: GENE-TOX mutagenicity studies
Conditions: for call: Assay Type: In vivo carcinogenicity studies
[1] = Species/Cell Type: Bacillus subtilis (H17 vs M45), Assay Type: Rec-assay, spot test, DNA effects (bacterial DNA repair), Assay Code: REW-, Evaluation Type: Evaluation A (Pre-1980)
[2] = Species/Cell Type: Nonhuman, Assay Code: CCGT, Evaluation Type: Evaluation A (Pre-1980)
[3] = Species/Cell Type: Salmonella typhimurium (one or more of the five standard strains: TA98, TA100, TA1535, TA1537, and TA1538), Assay Type: Histidine reverse gene mutation, Ames assay, Assay Code: SALT, Evaluation Type: Evaluation A (Pre-1980)
[4] = Species/Cell Type: Drosophila melanogaster, Assay Type: Sex-linked recessive lethal gene mutation, Assay Code: SRLT, Evaluation Type: Evaluation A (Pre-1980)
[5] = Species/Cell Type: Human diploid fibroblasts, Assay Type: Unscheduled DNA synthesis (UDS) in vitro, DNA effects, Assay Code: UDH+, Evaluation Type: Evaluation A (Pre-1980)
[6] = Species/Cell Type: Human lymphocytes, Assay Type: Sister-chromatid exchange (SCE) in vitro, Assay Code: SCL+D, Dose Response: With dose response, Evaluation Type: Evaluation B (Post-1980)
[7] = Species/Cell Type: Human, Assay Type: Sister-chromatid exchange (SCE) in vitro, Assay Code: SC1+D, Dose Response: With dose response, Evaluation Type: Evaluation B (Post-1980)
[8] = Species/Cell Type: Nonhuman, Assay Type: Sister-chromatid exchange (SCE) in vitro, Assay Code: SC2+D, Dose Response: With dose response, Evaluation Type: Evaluation B (Post-1980)
[9] = Species/Cell Type: Schizosaccharomyces pombe, Assay Type: Reverse gene mutation, Assay Code: YEZ+, Evaluation Type: Evaluation A (Pre-1980)
[10] = Species/Cell Type: Bacillus subtilis (H17 vs M45), Assay Type: Rec-assay, spot test, DNA effects (bacterial DNA repair), Assay Code: REWT, Evaluation Type: Evaluation A (Pre-1980)
[11] = Species/Cell Type: Human, Assay Type: Sister-chromatid exchange (SCE) in vitro, Assay Code: SC1T, Evaluation Type: Evaluation B (Post-1980)
[12] = Species/Cell Type: Salmonella typhimurium (one or more of the five standard strains: TA98, TA100, TA1535, TA1537, and TA1538), Assay Type: Histidine reverse gene mutation, Ames assay, Assay Code: SAL+, Evaluation Type: Evaluation A (Pre-1980)
[13] = Species/Cell Type: Vicia faba, Assay Type: Chromosome aberrations, Assay Code: VIC+, Evaluation Type: Evaluation A (Pre-1980)
[14] = Species/Cell Type: Drosophila melanogaster, Assay Type: Sex-linked recessive lethal gene mutation, Assay Code: SRL+, Evaluation Type: Evaluation A (Pre-1980)

SMILES: CNC(=O)Nc1nc(-c2ccc(OC)cc2)cs1
- mutagenic call (Species/Cell Type: Salmonella typhimurium, Assay Type: Forward and reverse gene mutation, host-mediated assay, Assay Code: HMAT, Evaluation Type: Evaluation A (Pre-1980)): no conclusion

SMILES: [Cl][Cu]
- mutagenic call [1]: inactive; negative

SMILES: O=c1c2ccc3cccc4c(=O)cc(c5ccccc15)-c2c34
- mutagenic call (Species/Cell Type: Chinese hamster lung (V79) cells, Assay Type: Forward gene mutation at the HPRT or ouabain locus, Assay Code: V79-, Evaluation Type: Evaluation A (Pre-1980)): inactive; negative
- call [2]: no conclusion
- mutagenic call [3]: no conclusion

SMILES: Nc1ncnc2nc[nH]c12
- mutagenic call (Species/Cell Type: Allium cepa, Assay Type: Chromosome aberrations, Assay Code: ALC+D, Dose Response: With dose response, Evaluation Type: Evaluation A (Pre-1980)): active; positive
- mutagenic call [4]: no conclusion

SMILES: OO
- mutagenic call (Species/Cell Type: Escherichia coli polA (W3119 vs P3478), Assay Type: Rec-assay, DNA effects (bacterial DNA repair), Assay Code: RE1+, Evaluation Type: Evaluation A (Pre-1980)): active; positive
- mutagenic call [5]: active; positive
- mutagenic call [6]: active; positive
- mutagenic call [7]: active; positive
- mutagenic call (Species/Cell Type: Neurospora crassa, Assay Type: Reverse gene mutation, Assay Code: NER+, Evaluation Type: Evaluation A (Pre-1980)): active; positive
- mutagenic call [8]: active; positive
- mutagenic call [3]: no conclusion
- mutagenic call [9]: active; positive
- mutagenic call (Species/Cell Type: Vicia faba, Assay Type: Chromosome aberrations, Assay Code: VIC-, Evaluation Type: Evaluation A (Pre-1980)): inactive; negative

SMILES: COc1cc(/C=C/C(=O)CC(=O)/C=C/c2ccc(O)c(OC)c2)ccc1O
- mutagenic call (Species/Cell Type: Saccharomyces cerevisiae, Assay Type: Mitotic recombination or gene conversion, Assay Code: YEC-, Evaluation Type: Evaluation A (Pre-1980)): inactive; negative

SMILES: O=S(=O)(O)c1ccc(N=C2C=CC(=C(c3ccc(Nc4ccc(S(=O)(=O)O)cc4)cc3)c3ccc(Nc4ccc(S(=O)(=O)O)cc4)cc3)C=C2)cc1
- mutagenic call [10]: no conclusion

SMILES: C[C@@H]1O[C@H]1P(=O)(O)O
- mutagenic call (Species/Cell Type: Mammalian polychromatic erythrocytes, Assay Type: Micronucleus test, chromosome aberrations, Assay Code: MNTT, Evaluation Type: Evaluation B (Post-1980)): no conclusion

SMILES: O=[Se](=O)(O)O
- mutagenic call [1]: inactive; negative
- mutagenic call [5]: active; positive
- mutagenic call (Species/Cell Type: Human lymphocytes, Assay Type: Sister-chromatid exchange (SCE) in vitro, Assay Code: SCLT, Evaluation Type: Evaluation B (Post-1980)): no conclusion
- mutagenic call [11]: no conclusion
- mutagenic call (Species/Cell Type: Nonhuman, Assay Type: Sister-chromatid exchange (SCE) in vitro, Assay Code: SC2+*, Activation: With metabolic activation, Evaluation Type: Evaluation B (Post-1980)): active; positive
- mutagenic call [12]: active; positive

SMILES: COc1cc2c(c3oc(=O)c4c(c13)CCOC4=O)C1C=COC1O2 (stereo not drawn)
- mutagenic call (Species/Cell Type: Aspergillus nidulans, Assay Type: Forward gene mutation, Assay Code: ASF+*, Activation: With metabolic activation, Evaluation Type: Evaluation A (Pre-1980)): active; positive
- mutagenic call [4]: no conclusion
- mutagenic call (Species/Cell Type: Drosophila melanogaster, Sex: Male, Assay Type: Heritable translocation test, chromosome aberrations, Assay Code: DHTT, Evaluation Type: Evaluation A (Pre-1980)): no conclusion
- mutagenic call (Species/Cell Type: Human lymphocytes or leukocytes, Assay Type: Chromosome aberrations in vitro, Assay Code: CY7T, Evaluation Type: Evaluation A (Pre-1980)): no conclusion
- mutagenic call [13]: active; positive

SMILES: O=P(N1CC1)(N1CC1)N1CC1
- mutagenic call [14]: active; positive
- mutagenic call (Species/Cell Type: Drosophila melanogaster, Sex: Male, Assay Type: Heritable translocation test, chromosome aberrations, Assay Code: DHT+, Evaluation Type: Evaluation A (Pre-1980)): active; positive
- mutagenic call (Species/Cell Type: Human lymphocytes or leukocytes, Assay Type: Chromosome aberrations in vitro, Assay Code: CY7+, Evaluation Type: Evaluation A (Pre-1980)): active; positive
- mutagenic call [6]: active; positive
- mutagenic call [7]: active; positive
- mutagenic call (Species/Cell Type: Mammalian germ cells, Sex: Male, Assay Type: Chromosome aberrations in vivo, Assay Code: CY9T, Evaluation Type: Evaluation A (Pre-1980)): no conclusion
- mutagenic call (Species/Cell Type: Mouse, Sex: Male, Assay Type: Heritable translocation test, chromosome aberrations, Assay Code: HTT+, Evaluation Type: Evaluation A (Pre-1980)): active; positive
- mutagenic call (Species/Cell Type: Neurospora crassa, Assay Type: Forward gene mutation, Assay Code: NEF+, Evaluation Type: Evaluation A (Pre-1980)): active; positive
- mutagenic call (Species/Cell Type: Nonhuman, Assay Type: Chromosome aberrations in vitro, Assay Code: CY&+, Evaluation Type: Evaluation A (Pre-1980)): active; positive
- call [2]: no conclusion
- mutagenic call [8]: active; positive
- mutagenic call (Species/Cell Type: Rodents, Sex: Male, Assay Type: Dominant lethal test, Assay Code: DLT+, Evaluation Type: Evaluation A (Pre-1980)): active; positive
- mutagenic call [9]: active; positive
- mutagenic call [13]: active; positive

SMILES: CS(=O)(=O)OCCCCO
- mutagenic call [14]: active; positive

SMILES: Nc1nc(N)nc(N)n1
- mutagenic call [4]: no conclusion

SMILES: Cc1cc2ccccc2c2ccc3c(F)cccc3c12
- mutagenic call [3]: no conclusion

SMILES: Cc1ccc2ccc3c4c(ccc3c2c1)C(=O)CC4
- mutagenic call [3]: no conclusion

SMILES: CN(CCC(=O)OC[C@H](N)C(=O)O)N=O
- mutagenic call (Species/Cell Type: Escherichia coli polA (W3110 vs P3478), Assay Type: Rec-assay, DNA effects (bacterial DNA repair), Assay Code: RE2+, Evaluation Type: Evaluation A (Pre-1980)): active; positive
- mutagenic call (Species/Cell Type: Escherichia coli polA (W3119 vs P3478), Assay Type: Rec-assay, DNA effects (bacterial DNA repair), Assay Code: RE1T, Evaluation Type: Evaluation A (Pre-1980)): no conclusion

SMILES: CCCCOc1ccc2nc3cc(Cl)ccc3c(NCCCNCCCl)c2n1
- mutagenic call (Species/Cell Type: Chinese hamster ovary (CHO) cells, Assay Type: Forward gene mutation at the HPRT locus, Assay Code: CHO+, Evaluation Type: Evaluation B (Post-1980)): active; positive

SMILES: COC(=O)[C@@]12Oc3ccc(-c4ccc5c(c4O)C(O)=C4C(=O)C[C@H](C)[C@@H](O)[C@]4(C(=O)OC)O5)c(O)c3C(O)=C1C(=O)C[C@H](C)[C@H]2O
- mutagenic call [3]: no conclusion

SMILES: O=CNNc1nc(-c2ccc([N+](=O)[O-])o2)cs1
- mutagenic call (Species/Cell Type: Bacillus subtilis (H17 vs M45), Assay Type: Rec-assay, spot test, DNA effects (bacterial DNA repair), Assay Code: REW+, Evaluation Type: Evaluation A (Pre-1980)): active; positive
- mutagenic call (Species/Cell Type: Escherichia coli WP2, Assay Type: Tryptophan reverse gene mutation, Assay Code: WP2+, Evaluation Type: Evaluation A (Pre-1980)): active; positive
- mutagenic call (Species/Cell Type: Escherichia coli WP2 UVRA, Assay Type: Tryptophan reverse gene mutation, Assay Code: WPU+, Evaluation Type: Evaluation A (Pre-1980)): active; positive
- mutagenic call (Species/Cell Type: Mouse, Sex: Male, Assay Type: Sperm morphology, Assay Code: SPI+, Evaluation Type: Evaluation A (Pre-1980)): active; positive
- call (Species/Cell Type: Nonhuman, Assay Code: CCG+, Evaluation Type: Evaluation A (Pre-1980)): active; positive
- mutagenic call [12]: active; positive

SMILES: CC(=O)ONC(=O)c1ccc2ccccc2c1
- mutagenic call [8]: active; positive

SMILES: CS(=O)(=O)OCCCNCCCOS(C)(=O)=O
- mutagenic call [12]: active; positive

SMILES: CC1(C)[C@@H](O[C@H]2O[C@H](C(=O)O)[C@@H](O)[C@H](O)[C@H]2O[C@@H]2O[C@H](C(=O)O)[C@@H](O)[C@H](O)[C@H]2O)CC[C@]2(C)[C@H]3C(=O)C=C4[C@@H]5C[C@@](C)(C(=O)O)CC[C@]5(C)CC[C@@]4(C)[C@]3(C)CC[C@@H]12
- mutagenic call [11]: no conclusion

SMILES: O=S(=O)(O)c1ccc(N=Nc2ccc(O)c3ccccc23)cc1
- mutagenic call [10]: no conclusion
- mutagenic call (Species/Cell Type: Bacillus subtilis (H17 vs M45T), Assay Type: Rec-assay, spot test, DNA effects (bacterial DNA repair), Assay Code: REXT, Evaluation Type: Evaluation A (Pre-1980)): no conclusion
- mutagenic call (Species/Cell Type: Salmonella typhimurium (one or more of the five standard strains: TA98, TA100, TA1535, TA1537, and TA1538), Assay Type: Histidine reverse gene mutation, Ames assay, Assay Code: SAL-, Evaluation Type: Evaluation A (Pre-1980)): inactive; negative

SMILES: CC(C)OC(=O)Nc1cccc(Cl)c1
- mutagenic call (Species/Cell Type: Hordeum vulgare (barley), Assay Type: Chromosome aberrations, Assay Code: HOC+, Evaluation Type: Evaluation A (Pre-1980)): active; positive
- mutagenic call (Species/Cell Type: Mammalian polychromatic erythrocytes, Assay Type: Micronucleus test, chromosome aberrations, Assay Code: MNTT, Evaluation Type: Evaluation A (Pre-1980)): no conclusion
- mutagenic call (Species/Cell Type: Mouse, Sex: Male, Assay Type: Sperm morphology, Assay Code: SPI-, Evaluation Type: Evaluation A (Pre-1980)): inactive; negative
- mutagenic call (Species/Cell Type: Nonhuman, Assay Type: Sister-chromatid exchange (SCE) in vitro, Assay Code: SC2+, Evaluation Type: Evaluation B (Post-1980)): active; positive
